The source of these data is PMC6952399, “Structures of lipoprotein signal peptidase II from Staphylococcus aureus complexed with antibiotics globomycin and myxovirescin” (Nature Communications, 2020).

One experiment addresses T1, LspMrs N52Q (Staphylococcus aureus, UniProt Q6GHN9, N52Q).
T1 construct: MGSS-hexahistidine-SSGR-TEV site (ENLYFQ) (N, cleaved yes); made in house; host or cells: E. coli C43 (DE3)
The experiment is described as follows: Gel-shift peptidase assay, LspMrs N52Q mutant. In kind it is biochemical, methicillin-resistant Staphylococcus aureus. How it is done: LspA mutant genes (N52A, N52Q, G54A, G54P, R110A, R110K, D118N, N133A, N133Q and D136N) were obtained by site-directed mutagenesis of the wild-type lspA construct in pETDuet. Mutagenesis was performed using the Q5® Site-Directed Mutagenesis Kit (New England Biolabs) and specific primers are listed in Supplementary Table 5. The correct mutations were confirmed by sequencing (Eurofins Genomics). Expression and purification of all LspMrs wild-type and mutants for enzyme assays were performed as described above with the following modifications: TALON® Metal Affinity Resin (Clontech) was used for IMAC purification and the detergent DDM was used for membrane solubilisation and protein purification.
(§1) The peptidase activity of LspMrs and P. aeruginosa LspA (LspPae) was quantified in a coupled gel-shift assay developed previously for LspPae[5]. The P. aeruginosa lipoprotein pre-proICP and the first two enzymes in the bacterial lipoprotein processing pathway Lgt and LspA were expressed and purified, as described. For FRET assays LspMrs was expressed and purified as described above and LspPae was expressed and purified as described in a published protocol.
Gel-shift activity assay. […] Band intensities of ICP were quantified using Image Lab. […]

Experiment [1] deals with T2, LspPae (lipoprotein signal peptidase II from Pseudomonas aeruginosa) (Pseudomonas aeruginosa, UniProt Q9HVM5).
T2 construct: made in house
T2 sequence (Q9HVM5 1-169): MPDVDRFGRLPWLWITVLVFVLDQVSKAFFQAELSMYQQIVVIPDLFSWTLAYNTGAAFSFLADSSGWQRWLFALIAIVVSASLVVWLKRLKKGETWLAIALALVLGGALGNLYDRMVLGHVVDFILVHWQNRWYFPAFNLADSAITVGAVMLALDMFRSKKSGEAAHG
The experiment is described as follows: Coupled gel-shift peptidase assay with proICP substrate, LspPae WT. The format is biochemical.
From the text: as §1
Gel-shift activity assay. For time course assays, reactions were set up containing 12 µM pre-proICP, 250 µM DOPG (Avanti Polar Lipids, Inc.) and 1.2 µM Lgt in Buffer E (50 mM Tris/HCl pH 7.5, 150 mM NaCl, 1 mM DTT, 0.02%(w/v) LMNG). The assay mixtures were incubated at 37 °C and 200 rpm for 60 min to allow Lgt catalysed conversion of pre-proICP to the LspA substrate proICP. The LspA reaction was initiated by adding 0.5 µM LspA directly to the assay mixture. At timed intervals, 20 µL samples were removed and the reaction was stopped by adding 10 µL of 4x SDS loading buffer (62.5 mM Tris/HCl pH 6.8, 2.5%(w/v) SDS, 0.002%(w/v) bromophenol blue, 0.5 M β-mercaptoethanol, 10%(v/v) glycerol). To compare the activity of wild-type and mutant LspMrs, assays were allowed to proceed for 30 min before being stopped with SDS loading buffer. […] The reactions were initiated by adding LspA and allowed to proceed for 30 min. After the reaction was stopped with SDS buffer, 10 μL aliquots were loaded on precast Mini-PROTEAN® TGX^TM gels (Bio-Rad) and run with Tris/glycine buffer (25 mM Tris/HCl pH 8.0, 250 mM glycine, 0.1%(w/v) SDS). The gels were stained using InstantBlue™ (Expedeon) Coomassie based stain and were imaged using a Bio-Rad Gel-Doc imager (Supplementary Fig. 4). Band intensities of ICP were quantified using Image Lab. Dose-response plots to determine IC50 values were generated using Prism® 5 software from GraphPad.

The term IC50 denotes the concentration at which inhibition is half-maximal. As for `CCCCCC[C@H]1OC(=O)CNC(=O)[C@H]([C@H](C)O)NC(=O)[C@H](CO)NC(=O)[C@H]([C@H](C)CC)NC(=O)[C@H](CC(C)C)N(C)C(=O)[C@@H]1C` [globomycin], the IC50 stood at 2.43 ± 0.34 µM on LspMrs N52Q and 0.64 ± 0.16 µM in experiment [1]. Besides, the remaining activity at 1000 µM in experiment [1] (Log[Globomycin](M) -3, read-out: Normalized activity) was 94.2%. Also, the remaining activity at 100 µM in experiment [1] (Log[Globomycin](M) -4, read-out: Normalized activity) came to 94%.
Regarding `CCCC1OC(=O)C(C)CC(C)CCCCC(=O)CCCC(CC)C=CC=C(COC)CCC(O)C(O)CC(O)CNC1=O` (stereo not shown) [myxovirescin, myxovirescin A1], the values for the IC50 (on LspMrs N52Q; in experiment [1]) were 0.29 ± 0.08 µM and 1.09 ± 0.34 µM, respectively. For the same compound, the remaining activity at 50 µM in experiment [1] (read-out: Normalized activity, Log[Myxovirescin](M) -4.30103) turned out to be 95.7%.
